Values quoted from earlier work as cited in patent US4451566A, “Methods and apparatus for enzymatically producing ethanol” (priority 1981, dated 1984).

Test system: Glucokinase (2.7.1.2), present in liver
Details: read-out: KM for d-glucose, phosphorylation of d-glucose with ATP as phosphate donor

For `OC[C@H]1OC(O)[C@H](O)[C@@H](O)[C@@H]1O` (stereo partly drawn) [d-glucose], the Km is listed as 100 mM.
